In PubChem BioAssay (NCI):
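Cells were grown in 96-well plates and exposed to each compound for 48 hours at five concentrations; endpoints were interpolated linearly between bracketing concentrations, or set to the highest concentration if not reached. GI50 is the concentration that inhibits growth by half. TGI denotes the concentration required for complete inhibition of growth.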

What follows are compounds tested on HL-60(TB) leukemia (assay: inhibition of tumour cell growth, NCI panel, 48 h).

Structure (SMILES) | TGI
N#CC(NNC(=O)Cc1ccccc1)c1ccccc1O (configuration not stated) | 36 µM
COc1c(C)c2c(c(C)c1Cl)Oc1c(C=O)c(O)c(Cl)c(C)c1C(=O)O2 | 57.8 µM

Each compound was assayed on HOP-18 NSCLC (assay: inhibition of tumour cell growth, NCI panel, 48 h).

Structure (SMILES) | TGI | GI50
O=c1[nH]cc(COCC(F)(F)C(F)(F)C(F)(F)C(F)F)c(=O)[nH]1 | > 100 µM | –
NC1CCCC[C@H]1N.N[C@@H]1CCCC[C@@H]1N.O=C(P(=O)([O-])[O-])P(=O)([O-])[O-].[Pt+4].[Pt+4] | > 100 µM | 59.6 µM
N#CC(NNC(=O)Cc1ccccc1)c1ccccc1O (configuration not stated) | 74.9 µM | –

What follows are compounds tested on HOP-62 NSCLC (assay: inhibition of tumour cell growth, NCI panel, 48 h).

Structure (SMILES) | TGI | GI50
Cc1cn(C2CC(N(O)Cc3ccccc3)C(CO)O2)c(=O)[nH]c1=O (configuration not stated) | > 100 µM | –
O=c1[nH]cc(COCC(F)(F)C(F)(F)C(F)(F)C(F)F)c(=O)[nH]1 | > 100 µM | –
NC1CCCC[C@H]1N.N[C@@H]1CCCC[C@@H]1N.O=C(P(=O)([O-])[O-])P(=O)([O-])[O-].[Pt+4].[Pt+4] | > 100 µM | > 100 µM
CC1=C(C(=O)Nc2c(C)cccc2C)C(c2ccccc2Cl)C(C(=O)Nc2c(C)cccc2C)=C(C)N1 | > 100 µM | –
N#CC(NNC(=O)Cc1ccccc1)c1ccccc1O (configuration not stated) | > 70.6 µM | –
COc1c(C)c2c(c(C)c1Cl)Oc1c(C=O)c(O)c(Cl)c(C)c1C(=O)O2 | 93.7 µM | –

What follows are compounds tested on HOP-92 NSCLC (assay: inhibition of tumour cell growth, NCI panel, 48 h).

Structure (SMILES) | TGI | GI50
O=c1[nH]cc(COCC(F)(F)C(F)(F)C(F)(F)C(F)F)c(=O)[nH]1 | > 100 µM | –
NC1CCCC[C@H]1N.N[C@@H]1CCCC[C@@H]1N.O=C(P(=O)([O-])[O-])P(=O)([O-])[O-].[Pt+4].[Pt+4] | > 100 µM | > 100 µM
CC1=C(C(=O)Nc2c(C)cccc2C)C(c2ccccc2Cl)C(C(=O)Nc2c(C)cccc2C)=C(C)N1 | > 100 µM | –
N#CC(NNC(=O)Cc1ccccc1)c1ccccc1O (configuration not stated) | > 92.1 µM | –

Each compound was assayed on HS 578T breast (assay: inhibition of tumour cell growth, NCI panel, 48 h).

Structure (SMILES) | TGI
N#CC(NNC(=O)Cc1ccccc1)c1ccccc1O (configuration not stated) | > 100 µM

The compounds below were run on HT29 colon (assay: inhibition of tumour cell growth, NCI panel, 48 h).

Structure (SMILES) | TGI | GI50
Cc1cn(C2CC(N(O)Cc3ccccc3)C(CO)O2)c(=O)[nH]c1=O (configuration not stated) | > 100 µM | –
O=c1[nH]cc(COCC(F)(F)C(F)(F)C(F)(F)C(F)F)c(=O)[nH]1 | > 100 µM | –
NC1CCCC[C@H]1N.N[C@@H]1CCCC[C@@H]1N.O=C(P(=O)([O-])[O-])P(=O)([O-])[O-].[Pt+4].[Pt+4] | > 100 µM | 70.9 µM
CC1=C(C(=O)Nc2c(C)cccc2C)C(c2ccccc2Cl)C(C(=O)Nc2c(C)cccc2C)=C(C)N1 | > 100 µM | –
N#CC(NNC(=O)Cc1ccccc1)c1ccccc1O (configuration not stated) | > 92.6 µM | –
COc1c(C)c2c(c(C)c1Cl)Oc1c(C=O)c(O)c(Cl)c(C)c1C(=O)O2 | > 100 µM | –

These compounds were tested on IGROV1 ovarian (assay: inhibition of tumour cell growth, NCI panel, 48 h).

Structure (SMILES) | TGI | GI50
Cc1cn(C2CC(N(O)Cc3ccccc3)C(CO)O2)c(=O)[nH]c1=O (configuration not stated) | > 100 µM | –
O=c1[nH]cc(COCC(F)(F)C(F)(F)C(F)(F)C(F)F)c(=O)[nH]1 | > 100 µM | –
NC1CCCC[C@H]1N.N[C@@H]1CCCC[C@@H]1N.O=C(P(=O)([O-])[O-])P(=O)([O-])[O-].[Pt+4].[Pt+4] | > 100 µM | > 100 µM
CC1=C(C(=O)Nc2c(C)cccc2C)C(c2ccccc2Cl)C(C(=O)Nc2c(C)cccc2C)=C(C)N1 | > 100 µM | –
N#CC(NNC(=O)Cc1ccccc1)c1ccccc1O (configuration not stated) | > 100 µM | –
COc1c(C)c2c(c(C)c1Cl)Oc1c(C=O)c(O)c(Cl)c(C)c1C(=O)O2 | 83.8 µM | –

What follows are compounds tested on K-562 leukemia (assay: inhibition of tumour cell growth, NCI panel, 48 h).

Structure (SMILES) | TGI | GI50
Cc1cn(C2CC(N(O)Cc3ccccc3)C(CO)O2)c(=O)[nH]c1=O (configuration not stated) | > 100 µM | –
O=c1[nH]cc(COCC(F)(F)C(F)(F)C(F)(F)C(F)F)c(=O)[nH]1 | > 100 µM | –
NC1CCCC[C@H]1N.N[C@@H]1CCCC[C@@H]1N.O=C(P(=O)([O-])[O-])P(=O)([O-])[O-].[Pt+4].[Pt+4] | > 100 µM | 78.2 µM
CC1=C(C(=O)Nc2c(C)cccc2C)C(c2ccccc2Cl)C(C(=O)Nc2c(C)cccc2C)=C(C)N1 | > 100 µM | –
N#CC(NNC(=O)Cc1ccccc1)c1ccccc1O (configuration not stated) | > 100 µM | –
COc1c(C)c2c(c(C)c1Cl)Oc1c(C=O)c(O)c(Cl)c(C)c1C(=O)O2 | 97 µM | –

Each compound was assayed on KM12 colon (assay: inhibition of tumour cell growth, NCI panel, 48 h).

Structure (SMILES) | TGI | GI50
Cc1cn(C2CC(N(O)Cc3ccccc3)C(CO)O2)c(=O)[nH]c1=O (configuration not stated) | > 100 µM | –
O=c1[nH]cc(COCC(F)(F)C(F)(F)C(F)(F)C(F)F)c(=O)[nH]1 | > 100 µM | –
NC1CCCC[C@H]1N.N[C@@H]1CCCC[C@@H]1N.O=C(P(=O)([O-])[O-])P(=O)([O-])[O-].[Pt+4].[Pt+4] | > 100 µM | > 100 µM
CC1=C(C(=O)Nc2c(C)cccc2C)C(c2ccccc2Cl)C(C(=O)Nc2c(C)cccc2C)=C(C)N1 | > 100 µM | –
N#CC(NNC(=O)Cc1ccccc1)c1ccccc1O (configuration not stated) | > 100 µM | –
COc1c(C)c2c(c(C)c1Cl)Oc1c(C=O)c(O)c(Cl)c(C)c1C(=O)O2 | > 100 µM | –
